Patent US8795740B2, “Drip tray tablet” (Novapharm Research (Australia) Pty Ltd, priority 2003, dated 2014)

Test: preservation of enzyme activity in the tablet in use
Assay type: physicochemical
Conditions: in the non-dissolved part of the tablet
Text: A preferred boron compound is borax, which the present inventors have found acts to preserve the enzyme activity in use for at least 3 months in the non-dissolved part of the tablet. The present invention thus provides matching between the enzyme activity and tablet dissolution parameters.

Q: For `O=BOB(O)OB(O)OB=O` [borax, Borax], which “time for which enzyme activity is preserved in use” value is on record?
A: The value was “at least 3 months”.
